Non-standard residues stand in square brackets, D forms with d. No end group written: not given here. *: point of attachment. pT = C[C@@H](OP(=O)(O)O)[C@H](N)C(=O)O; Myristoyl = CCCCCCCCCCCCCC(=O)*
Tests used:
[1] = Formalin test of acute inflammatory pain; assay type: in vivo, mice; conditions: single i.pl. injection 100 μM, 20 μl, 24 hrs before 5% formalin; vs scrambled peptide
From the text: In vivo transfection with jetPEI®/Magi-1 shRNA plasmid DNA polyplexes—The spinal nerve injection protocol was adopted from and optimized for spinal nerve injection in mice. Three days after baseline thermal behavior was established, mice were anesthetized using isoflurane (induction: 4% and maintenance: 2%), and placed in a prone position. A 3-cm posterior longitudinal skin incision was made at the lumbar segment of the spine. The ipsilateral paraspinal muscles were carefully separated, using a pair of sterile toothpicks, from their attachments at the L4˜S1 levels of the vertebral column. 1.5 μl of PEI/shRNA plasmid DNA polyplexes at an N/P ratio of 6 were injected directly in the spinal nerve of the right hind paw slowly using a syringe connected to a 26-gauge needle (Hamilton 80030, Hamilton, Reno, NV). Magi-1 shRNAs and control shRNA were purchased from Santa Cruz Biotechnology (Santa Cruz, CA, USA) and were identical to the siRNA sequences described above. After injection, the needle was held at the spinal nerve for 1 min to prevent leakage. […]
Formalin test—Mice were habituated in the behavior room for 15 minutes, then 30 minutes in the formalin chamber before formalin injection. […] The total time spent lifting, the total number of licks, and the number of flinches were recorded in 5 minute intervals for 60 minutes. […]

[2] = test system: NaV1.7; test: Surface biotinylation of NaV1.7 in cultured DRG neurons; assay type: cell-based, rat; conditions: peptide treatment 24 hrs
Description: (§1) Western Blot Analysis—Total proteins were collected from transfected CHO cells, spinal cord and DRG. Tissue was homogenized in RIPA buffer supplemented in protease inhibitor cocktail (Sigma). Immunoblotting was performed as previously described. Briefly, proteins were separated on 4-15% Mini-PROTEAN TGX Precast Gel (Bio-Rad) and transferred to a 0.45 μm nitrocellulose membrane (BioRad). Membranes were probed overnight at 4° C. with antibodies against Slack anti-mouse (1:500; NeuroMab), rabbit anti-β-Actin (1:500; Millipore), rabbit anti-Magi-1 (1:100; Abcam), mouse anti-Magi-1 (1:100; Novus Biochemical), mouse anti-NaV1.8 (1:200; NeuroMab), mouse anti-NaV1.7 (1:200; NeuroMab), mouse anti-Flag (1:500; Sigma) in 5% milk prepared in 1×Tris-buffered saline tween (TBST). On the following day, the membrane was washed three times for five minutes in 1×TBST before being incubated for 1 hour at room temperature in Anti-mouse or Anti-rabbit horseradish peroxidase conjugate (1:5000; Promega) and 0.1% BSA prepared in 1×PBS. The membrane was again washed 3 times for 5 minutes before being developed and imaged. Bands were visualized with enhanced chemiluminescence (Thermo Scientific) and quantified with Image J Software (NIH). Each experiment was repeated at least three times.
(§2) Surface Protein Biotinylation—Plasma membrane protein expression was detected using a protein biotinylation assay. […]

[3] = test system: INa in DRG neurons; test: Whole-cell voltage-clamp recording of inward sodium current (INa); assay type: cell-based, rat; conditions: for INa (total / peak): 10 μM peptide, 24 hrs
Description: Primary DRG neuronal cultures—Timed-pregnant Sprague-Dawley rats (Harlan, Indianapolis, Ind.) were used for culturing neurons. On the day of the dissection, rats were euthanized by CO2 asphyxiation and E15 embryos were extracted. DRG neurons were dissected from the embryos and enzymatically digested with Trypsin (2.5 mg/ml) at 37° C. for 45 min, followed by dissociation and plating. DRG neurons were plated onto poly-D-lysine (Sigma; 100 μg/ml) and laminin (Invitrogen; 3 μg/ml) coated coverslips. Neurons were maintained at 37° C. in a 7% CO2 humidified incubator in serum-free medium, comprised of the trophic factors N2 (Gemini Bio products; 1%), I-Glutamine (Invitrogen; 200 sg/ml), and Nerve Growth Factor (NGF) (Harlan; 100 ng/ml; essential for embryonic neuronal survival) in 50% DMEM and 50% F-12. The reliance of embryonic DRG neurons on NGF selects for the small-diameter population that is thought to underlie nociception and thermoception. Two successive days after DRG dissection, DRG neurons were cultured in C2 media containing the anti-mitotic agent cytosine β-d-arabinofuranoside hydrochloride (Sigma; 3 μM). This was followed by two days of recovery were neurons received regular serum free media before neurons were used for experiments. […]
Electrophysiology—All data was acquired using the Axopatch 200B amplifier (Molecular Devices,) and Multiclamp-700B (Molecular Devices, Sunnyvale, Calif.), digitized and filtered at 5 kHz. Data acquisition was monitored and controlled using pClamp 10 (Molecular Devices). […] In voltage-clamp mode, macroscopic currents were recorded at voltages ranging from −120 to +120. […] The cell capacitance for CHO cells ranged from 10-15 pF and for cultured DRG neurons 20-25 pF recorded under these conditions. […] Firing frequency of individual neurons was assessed by measurement of repetitive discharge upon injecting of a supra-threshold stimulus of 400 pA for 1000 ms. […] For TTX-resistant INa, DRG neurons were recorded in a bath solution containing 250 nM TTX. DRG neurons were recorded at voltages ranging from −60 to +60 mV. […]

[4] = test system: NaV1.8; test: Surface biotinylation / Western blot of NaV1.8 in cultured DRG neurons; assay type: cell-based, rat; conditions: 10 μM peptide, 24 hrs
Description: as §1
Surface Protein Biotinylation—Plasma membrane protein expression was detected using a protein biotinylation assay. Briefly, CHO cells or DRG neurons in six-well plates were used at 48 h after transient transfection of plasmid constructs or Magi-1 targeting siRNA respectively. For peptide incubation, neurons were incubated for 24 hrs. 160 μl of 10 mM Sulfo-NHS-SS-Biotin (Thermo Scientific) was added to each well and incubated at room temperature for 45 mins. The biotinylation reaction was terminated using 10 mM glycine (Quenching solution). Cells were harvested, washed in TBS and lysed on ice for 30 minutes in a lysis buffer/protease inhibitor cocktail. Lysates were collected and incubated with 500 uL of NeutrAvidin Agarose for 60 mins at room temperature with rotation. Following incubation, the column underwent centrifugation to collect the unbiotinylated protein. To elute the biotinylated proteins, sodium dodecyl sulfate (SDS) and dithiothreitol (DDT) were added to column membrane and incubated with rotation for 1 hour at room temperature. Biotinylated and unbiotinylated samples were probed for Slack or NaV1.8 and Actin protein by Western blot, as described above.

[5] = test system: DRG neurons; test: Current-clamp action potential firing in cultured DRG neurons; assay type: cell-based, rat
Description: Primary DRG neuronal cultures—Timed-pregnant Sprague-Dawley rats (Harlan, Indianapolis, Ind.) were used for culturing neurons. On the day of the dissection, rats were euthanized by CO2 asphyxiation and E15 embryos were extracted. DRG neurons were dissected from the embryos and enzymatically digested with Trypsin (2.5 mg/ml) at 37° C. for 45 min, followed by dissociation and plating. DRG neurons were plated onto poly-D-lysine (Sigma; 100 μg/ml) and laminin (Invitrogen; 3 μg/ml) coated coverslips. Neurons were maintained at 37° C. in a 7% CO2 humidified incubator in serum-free medium, comprised of the trophic factors N2 (Gemini Bio products; 1%), I-Glutamine (Invitrogen; 200 sg/ml), and Nerve Growth Factor (NGF) (Harlan; 100 ng/ml; essential for embryonic neuronal survival) in 50% DMEM and 50% F-12. The reliance of embryonic DRG neurons on NGF selects for the small-diameter population that is thought to underlie nociception and thermoception. Two successive days after DRG dissection, DRG neurons were cultured in C2 media containing the anti-mitotic agent cytosine β-d-arabinofuranoside hydrochloride (Sigma; 3 μM). This was followed by two days of recovery were neurons received regular serum free media before neurons were used for experiments. All subsequent experiments using embryonic cultures were performed on days 5-10 of neuronal culture.
Electrophysiology—All data was acquired using the Axopatch 200B amplifier (Molecular Devices,) and Multiclamp-700B (Molecular Devices, Sunnyvale, Calif.), digitized and filtered at 5 kHz. Data acquisition was monitored and controlled using pClamp 10 (Molecular Devices). Whole-cell patch-clamp recordings were performed on cultured DRG neurons, and CHO cells transiently transfected with WT or mutated Slack with Magi-1. Glass electrodes were pulled using a vertical pipette puller (Narishige International USA, Amityville, NY) and fire polished to be of 5-8 MΩ resistance. Pipettes were filled with solution containing (in mM) 124 K-gluconate, 2 MgCl2, 13.2 NaCl, 1 EGTA, 10 HEPES, 4 Mg-ATP, and 0.3 Na-GTP at pH 7.2 for neuronal recordings, and with 32.5 mM KCl, 97.5 mM potassium gluconate, 5 mM EGTA and 10 mM HEPES (pH 7.2) for CHO cell Slack and Slick recordings. […] In voltage-clamp mode, macroscopic currents were recorded at voltages ranging from −120 to +120. […] The cell capacitance for CHO cells ranged from 10-15 pF and for cultured DRG neurons 20-25 pF recorded under these conditions. […] Firing frequency of individual neurons was assessed by measurement of repetitive discharge upon injecting of a supra-threshold stimulus of 400 pA for 1000 ms. […] For TTX-resistant INa, DRG neurons were recorded in a bath solution containing 250 nM TTX. DRG neurons were recorded at voltages ranging from −60 to +60 mV. […]

[6] = test system: Slack KNa channel; test: Surface biotinylation of Slack channel in cultured DRG neurons; assay type: cell-based, rat; conditions: 24 hrs after PDZ peptide incubation, vs scrambled peptide B
Description: as §1, §2

Substance	Phase II acute inflammatory pain (formalin) [1]	surface (biotinylated) NaV1.7 membrane expression [2]	INa (total / peak) [3]	decrease in INa density ([3]; PY peptide incubation, 6 hours)	NaV1.8 channels at the plasma membrane (surface expression) [4]	total NaV1.8 protein [4]	neurons with AP firing almost completely abolished ([5]; 10 μM peptide, 24 hrs)	neurons firing one action potential followed by firing accommodation ([5]; suprathreshold stimulation 400 pA, 1000 ms)	neurons with repetitive AP firing ([5]; 10 μM peptide, 24 hrs, suprathreshold stimulation 400 pA, 1000 ms)	Slack surface expression [6]	neurons exhibiting repetitive firing ([5]; PDZ peptide treated, suprathreshold stimulation 400 pA, 1000 ms)
myristoyl-SATSFPPSYDSVTRG (Myristoyl-SATSFPPSYDSVTRG) [PY peptide]	significantly reduced	unaltered	almost complete loss	50%	substantial decrease	substantial decrease	10 of 11	–	–	–	–
myristoyl-QPNTRLDETE (Myristoyl-QPNTRLDETE) [Scrambled peptide B, reference compound]	–	–	–	–	–	–	–	23/23	–	–	–
myristoyl-SATSFPPSYDSV[pT]RG (Myristoyl-SATSFPPSYDSV[pT]RG) [phospho-PY peptide]	increase	unaltered	strongly increased	–	significant increase	a statistically significant increase in input levels of NaV1.8 protein over 24 hours was not observed	–	–	7 of 12	–	–
NPETRDETQL [PDZ peptide]	–	–	–	–	–	–	–	–	–	decreased	11/21

Reference: patent US12077610B2, “Peptides and other agents for treating pain and increasing pain sensitivity” (The Research Foundation for The State University of New York, priority 2017, dated 2024)
